This assay deals with T1, Human a-thrombin (Homo sapiens, UniProt P00734).
T1 construct: Human a-thrombin, Sigma Chemical Co. or Hematologic Technologies; purchased Sigma Chemical Co. or Hematologic Technologies
The experiment in a line: Test B: thrombin inhibition with a chromogenic, robotic assay. It is filed as biochemical. To be noted: chromogenic substrate S-2366, 40 minutes incubation at 37° C. The method, then:
Determination of Thrombin Inhibition with a Chromogenic, Robotic Assay
The thrombin inhibitor potency is measured with a chromogenic substrate method, in a Plato 3300 robotic microplate processor (Rosys AG, CH-8634 Hombrechtikon, Switzerland), using 96-well, half volume microtitre plates (Costar, Cambridge, Mass., USA; Cat No 3690). Stock solutions of test substance in DMSO (72 μL), 0.1-1 mmol/L, are diluted serially 1:3 (24+48 μL) with DMSO to obtain ten different concentrations, which are analysed as samples in the assay. 2 μL of test sample is diluted with 124 μL assay buffer, 12 μL of chromogenic substrate solution (S-2366, Chromogenix, Mölndal, Sweden) in assay buffer and finally 12 μL of a-thrombin solution (Human a-thrombin, Sigma Chemical Co. or Hematologic Technologies) in assay buffer, are added, and the samples mixed. The final assay concentrations are: test substance 0.00068-133 μmol/L, S-2366 0.30 mmol/L, a-thrombin 0.020 NIHU/mL. The linear absorbance increment during 40 minutes incubation at 37° C. is used for calculation of percentage inhibition for the test samples, as compared to blanks without inhibitor. The IC50-robotic value, corresponding to the inhibitor concentration which causes 50% inhibition of the thrombin activity, is calculated from a log concentration vs. % inhibition curve.

Compound `Cc1cc(N)nc(C)c1CNC(=O)Cn1c(C)cc(=O)n(NCC(F)(F)c2ccccn2)c1=O` [5(a), N-[(6-Amino-2,4-dimethylpyridin-3-yl)methyl]-2-[3-[(2,2-difluoro-2-pyridin-2-ylethyl)amino]-6-methyl-2,4-dioxo-3,4-dihydropyrimidin-1(2H)-yl]acetamide] gave an IC50 of 169 nM.

With `Cc1cc(=O)n(NCC(F)(F)c2ccccn2)c(=O)n1CC(=O)NCc1cc(Cl)ccc1CN` [Example 2, N-[2-(Aminomethyl)-5-chlorobenzyl]-2-[3-[(2,2-difluoro-2-pyridin-2-ylethyl)-amino]-6-methyl-2,4-dioxo-3,4-dihydropyrimidin-1(2H)-yl]acetamide], the IC50 is 32.7 nM.

One may read the IC50 as the concentration needed to halve the response being measured. Read a high IC50 as lower potency.
